For 6 compounds, IC50 results are on record in patent US9079930B2, “Substituted pyrimidines” (MERCK SHARP & DOHME CORP., priority 2011, dated 2015).

A word on the pIC50: it is the negative decadic logarithm of the IC50, by convention in mol/L. Read a high pIC50 as a small IC50.

pIC50: −log10 of the molar value.

The target in the assay is T1, FLAG-tagged full length PHD2 (Homo sapiens, UniProt Q9GZT9).
T1 construct: FLAG-tagged full length PHD2 expressed in and purified from baculovirus-infected Sf9 cells; FLAG; made in house; host or cells: baculovirus-infected Sf9 cells
T1 sequence (Q9GZT9 whole entry): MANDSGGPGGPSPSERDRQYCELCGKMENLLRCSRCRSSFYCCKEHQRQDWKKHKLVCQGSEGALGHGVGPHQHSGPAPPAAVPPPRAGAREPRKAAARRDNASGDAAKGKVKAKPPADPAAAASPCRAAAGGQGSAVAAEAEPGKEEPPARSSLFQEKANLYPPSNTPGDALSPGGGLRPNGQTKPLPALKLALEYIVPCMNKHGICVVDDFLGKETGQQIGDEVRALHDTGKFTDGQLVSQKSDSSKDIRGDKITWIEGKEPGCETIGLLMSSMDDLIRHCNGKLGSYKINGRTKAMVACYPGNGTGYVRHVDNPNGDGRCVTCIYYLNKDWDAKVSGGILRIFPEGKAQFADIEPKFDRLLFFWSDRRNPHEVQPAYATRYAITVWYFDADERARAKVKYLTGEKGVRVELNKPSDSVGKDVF
In words: PHD2 inhibition assay (time resolved fluorescence, HIF-1α peptide hydroxylation, VHL complex detection). As to conditions: 0.2 μM 2-oxoglutarate, 0.5 μM HIF-1α peptide. The class given is biochemical. Here is the method:
To each well of a 96-well plate was added 1 μL of test compound in DMSO and 20 μl of assay buffer (50 mM Tris pH 7.4/0.01% Tween-20/0.1 mg/ml bovine serum albumin/10 μM ferrous sulfate/i mM sodium ascorbate/20 μg/ml catalase) containing 0.15 μg/ml FLAG-tagged full length PHD2 expressed in and purified from baculovirus-infected Sf9 cells. After a 30 min preincubation at room temperature, the enzymatic reactions were initiated by the addition of 4 μL of substrates (final concentrations of 0.2 μM 2-oxoglutarate and 0.5 μM HIF-1α peptide biotinyl-DLDLEMLAPYIPMDDDFQL (SEQ ID NO: 1)). After 2 hr at room temperature, the reactions were terminated and signals were developed by the addition of a 25 μL quench/detection mix to a final concentration of 1 mM ortho-phenanthroline, 0.1 mM EDTA, 0.5 nM anti-(His)6 LANCE reagent (Perkin-Elmer Life Sciences), 100 nM AF647-labeled streptavidin (Invitrogen), and 2 μg/ml (His)6-VHL complex (S. Tan (2001) Protein Expr. Purif. 21, 224-234). The ratio of time resolved fluorescence signals at 665 and 620 nm was determined, and percent inhibition was calculated relative to an uninhibited control sample run in parallel.
As for `CCOC(=O)[C@H](C)NP(=O)(N[C@@H](C)C(=O)OCC)c1ccc(C(NC(=O)c2cnc(-c3cccnn3)nc2O)c2ccc(OC)cc2)cc1` (stereo partly drawn) [Compound 31-2, (2S,2′S)-Diethyl 2,2′-((4-((4-hydroxy-2-(pyridazin-3-yl)pyrimidine-5-carboxamido)(4-methoxyphenyl)methyl)phenyl)phosphoryl)bis(azanediyl)dipropanoate], the pIC50 was 7.70 to 9.30. The compound `COc1ccc(C(NC(=O)c2cnc(-c3cccnn3)nc2O)c2ccc(CP(=O)(O)O)cc2)cc1` (stereo not drawn) [Compound 32-1, 4-((4-hydroxy-2-(pyridazin-3-yl)pyrimidine-5-carboxamido)(4-methoxyphenyl)methyl)benzylphosphonic acid] had a pIC50 of 7.70 to 9.30.

Regarding `CC(C)(NC(=O)c1cnc(-c2cccnn2)nc1O)c1ccc(-c2ccc(P(=O)(O)O)cc2)nc1` [Compound 33-1, 4-(5-(2-(4-hydroxy-2-(pyridazin-3-yl)pyrimidine-5-carboxamido)propan-2-yl)pyridine-2-yl)phenylphosphonic acid], the pIC50 was 7.70 to 9.30. `COc1ccc(C(NC(=O)c2cnc(-c3cccnn3)nc2O)c2cccc(P(=O)(O)O)c2)cc1` (stereo not drawn) [Compound 34-1, 3-((4-hydroxy-2-(pyridazin-3-yl)pyrimidine-5-carboxamido)(4-methoxyphenyl)methyl)phenylphosphonic acid]: the pIC50 was 7.70 to 9.30.

`O=C(Cc1cccc(P(=O)(O)O)c1)Nc1cnc(-c2cccnn2)nc1O` [Compound 35-1, 3-(2-(4-hydroxy-2-(pyridazin-3-yl)pyrimidin-5-ylamino)-2-oxoethyl)phenyl phosphonic acid] gave a pIC50 of 5.00 to 7.00. For `COc1ccc(C(NC(=O)c2cnc(-c3cccnn3)nc2O)P(=O)(O)O)cc1` (stereo not drawn) [Compound 36-1, (4-Hydroxy-2-(pyridazin-3-yl)pyrimidine-5-carboxamido)(4-methoxyphenyl)methyl phosphonic acid] the value was 7.00 to 7.70.
